According to article PMC10099666, “Structure Elucidation, Total Synthesis, Antibacterial In Vivo Efficacy and Biosynthesis Proposal of Myxobacterial Corramycin” (Angewandte Chemie (International Ed. in English), 2022):
Converted amounts (≈) assume the structure as drawn.

Legend:
[1] = system: E. coli isolate 2 (CTX-M-2); assay: Cross-resistance MIC assay, clinical isolate; type: cell-based; design: unit not given beside the values; conditions: E. coli isolate 2, CTX-M-2, resistance ESBL; protocol as section 5 (CAMHB; there µg mL-1); unit not given in Table S5
Protocol: (§1) 5. Determination of the minimal inhibitory concentration (MIC) in vitro The MIC of Corramycin was evaluated following the Clinical & Laboratory Standard Institute (CLSI; https://clsi.org) and EUCAST (https://eucast.org) guidelines. First, inoculi of the bacterial test strains were prepared by culturing isolated colonies in cation-adjusted Müller Hinton broth (CAMHB; 2 g L-1 beef infusion solids, 1.5 g L-1 starch, 17.5 g L-1 casein hydrolysates, final pH 7.4) at 37 °C and 180 rpm for 18 h. Next, Corramycin, which was dissolved in DMSO, was transferred into the first row of a 96-well plate to reach an end concentration of 64 µg mL-1 (in 100 µL total volume). A 1:1 serial dilution in cation-adjusted Mueller Hinton broth (CAMHB) of the test compound was done from the top row to the bottom […]
(§2) the respective test strains were transferred into the wells, reaching a total volume of 100 µL and 5x10^5 colony-forming units (CFU) mL-1. After a 20 to 22 h of incubation, the optical density was evaluated on a microplate reader and the MIC endpoint was determined as the lowest concentration of antibiotic at which there was no visible growth observed. Each MIC experiment was performed in duplicates. Table […]
(§3) (1 picture or pasted object on this page, not shown here)
(§4) 6. Investigation of the cross-resistance of Corramycin to clinically used antibiotics […]
(§5) of the MIC according to the protocol described in the previous section. The MIC of the respective antibiotics against 16 clinical isolate E. coli strains, which were obtained from P. Nordmann’s collection and were classified Carbapenem-resistant, Aminoglycoside-resistant or Quinolone-resistant, was […]
(§6) extended-spectrum β-lactamase; CP: carbapenem; AG: aminoglycoside; QL: quinolone; PRP

[2] = system: E. coli isolate 3 (OXA-30); assay: Cross-resistance MIC assay, clinical isolate; type: cell-based; design: unit not given beside the values; conditions: E. coli isolate 3, OXA-30, resistance ESBL-CP; protocol as section 5 (CAMHB; there µg mL-1); unit not given in Table S5
Protocol: as §1, §2, §3, §4, §5, §6

[3] = system: E. coli isolate 5 (TEM-3); type: cell-based; design: unit not given beside the values; conditions: E. coli isolate 5, TEM-3, resistance ESBL; protocol as section 5 (CAMHB; there µg mL-1); unit not given in Table S5
Protocol: as §1, §2, §3, §4, §5, §6

[4] = system: E. coli isolate 10 (OXA-48+CTX-M-15); assay: Cross-resistance MIC assay, clinical isolate; type: cell-based; conditions: E. coli isolate 10, OXA-48+CTX-M-15, resistance ESBL-CP; protocol as section 5 (CAMHB; there µg mL-1); unit not given in Table S5
Protocol: as §1, §2, §3, §4, §5, §6

[5] = system: E. coli isolate 11 (RMT-B); assay: Cross-resistance MIC assay, clinical isolate; type: cell-based; conditions: resistance AG, protocol as section 5 (CAMHB; there µg mL-1), unit not given in Table S5
Protocol: as §1, §2, §3, §4, §5, §6

[6] = system: E. coli isolate 6 (IMP-1); assay: Cross-resistance MIC assay, clinical isolate; type: cell-based; conditions: E. coli isolate 6, IMP-1, resistance ESBL-CP; protocol as section 5 (CAMHB; there µg mL-1); unit not given in Table S5
Protocol: as §1, §2, §3, §4, §5, §6

[7] = system: E. coli isolate 7 (IMP-4); assay: Cross-resistance MIC assay, clinical isolate; type: cell-based; conditions: E. coli isolate 7, IMP-4, resistance ESBL-CP; protocol as section 5 (CAMHB; there µg mL-1); unit not given in Table S5
Protocol: as §1, §2, §3, §4, §5, §6

[8] = system: E. coli isolate 1 (CTX-M-1); assay: Cross-resistance MIC assay, clinical isolate; design: unit not given beside the values; conditions: E. coli isolate 1, CTX-M-1, resistance ESBL; protocol as section 5 (CAMHB; there µg mL-1); unit not given in Table S5
[9] = system: E. coli isolate 4 (SHV-2a); assay: Cross-resistance MIC assay, clinical isolate; design: unit not given beside the values; conditions: resistance ESBL, protocol as section 5 (CAMHB; there µg mL-1), unit not given in Table S5
[10] = system: E. coli isolate 8 (KPC-2+TEM-1+OXA-9); assay: Cross-resistance MIC assay, clinical isolate; design: unit not given beside the values; conditions: E. coli isolate 8, KPC-2+TEM-1+OXA-9, resistance ESBL-CP; protocol as section 5 (CAMHB; there µg mL-1); unit not given in Table S5
[11] = system: E. coli isolate 9 (OXA-48); assay: Cross-resistance MIC assay, clinical isolate; design: unit not given beside the values; conditions: E. coli isolate 9, OXA-48, resistance ESBL-CP; protocol as section 5 (CAMHB; there µg mL-1); unit not given in Table S5
[12] = system: E. coli isolate 12 (ARM-A); assay: Cross-resistance MIC assay, clinical isolate; design: unit not given beside the values; conditions: resistance AG, protocol as section 5 (CAMHB; there µg mL-1), unit not given in Table S5
[13] = system: E. coli isolate 13 (RMT-C); assay: Cross-resistance MIC assay, clinical isolate; design: unit not given beside the values; conditions: resistance AG, protocol as section 5 (CAMHB; there µg mL-1), unit not given in Table S5
[14] = system: E. coli isolate 14 (qepA); assay: Cross-resistance MIC assay, clinical isolate; design: unit not given beside the values; conditions: resistance QL, protocol as section 5 (CAMHB; there µg mL-1), unit not given in Table S5
[15] = system: E. coli isolate 15 (qnrA1); assay: Cross-resistance MIC assay, clinical isolate; design: unit not given beside the values; conditions: E. coli isolate 15, qnrA1, resistance QL; protocol as section 5 (CAMHB; there µg mL-1); unit not given in Table S5
[16] = system: E. coli isolate 16 (QnrS1); assay: Cross-resistance MIC assay, clinical isolate; design: unit not given beside the values; conditions: E. coli isolate 16, QnrS1, resistance QL; protocol as section 5 (CAMHB; there µg mL-1); unit not given in Table S5

SMILES: CO/N=C(\C(=O)N[C@@H]1C(=O)N2C(C(=O)O)=C(COC(C)=O)CS[C@H]12)c1csc(N)n1 [Cefotaxim]
- MIC [1]: 64
- MIC [2]: 1
- MIC [3]: 64
- MIC [4]: > 64 µg/mL
- MIC [5]: > 64 µg/mL
- MIC [6]: 0.25 µg/mL (≈ 0.549 µM)
- MIC [7]: > 64 µg/mL
- MIC [8]: > 64
- MIC [9]: 64
- MIC [10]: > 64
- MIC [11]: > 64
- MIC [12]: > 64
- MIC [13]: > 64
- MIC [14]: > 64
- MIC [15]: 32
- MIC [16]: > 64

SMILES: CO[C@@]1(NC(=O)Cc2cccs2)C(=O)N2C(C(=O)O)=C(COC(N)=O)CS[C@@H]21 [Cefoxitin]
- MIC [1]: 4
- MIC [2]: 4
- MIC [3]: 4
- MIC [4]: 16 µg/mL (≈ 37.4 µM)
- MIC [5]: 16 µg/mL (≈ 37.4 µM)
- MIC [6]: 16 µg/mL (≈ 37.4 µM)
- MIC [7]: > 64 µg/mL
- MIC [8]: 8
- MIC [9]: 4
- MIC [10]: 64
- MIC [11]: 16
- MIC [12]: 8
- MIC [13]: > 64
- MIC [14]: 8
- MIC [15]: 8
- MIC [16]: 8

SMILES: CO[C@H]1/C=C/O[C@@]2(C)Oc3c(C)c(O)c4c(O)c(c(/C=N/N5CCN(C)CC5)c(O)c4c3C2=O)NC(=O)/C(C)=C\C=C\[C@H](C)[C@H](O)[C@@H](C)[C@@H](O)[C@@H](C)[C@H](OC(C)=O)[C@@H]1C [Rifampicin]
- MIC [3]: 16
- MIC [4]: 16 µg/mL (≈ 19.4 µM)
- MIC [5]: 16 µg/mL (≈ 19.4 µM)
- MIC [6]: 16 µg/mL (≈ 19.4 µM)
- MIC [7]: 16 µg/mL (≈ 19.4 µM)
- MIC [9]: 16
- MIC [11]: 64
- MIC [12]: > 64
- MIC [15]: > 64

SMILES: CN(C)[C@@H]1C(O)=C(C(N)=O)C(=O)[C@@]2(O)C(O)=C3C(=O)c4c(O)cccc4[C@@](C)(O)[C@H]3C[C@@H]12 [Tetracyclin]
- MIC [1]: 32
- MIC [14]: 4
- MIC [15]: 4

SMILES: NC[C@H]1O[C@H](O[C@H]2[C@H](O)[C@@H](O[C@H]3O[C@H](CO)[C@@H](O)[C@H](N)[C@H]3O)[C@H](N)C[C@@H]2N)[C@H](N)C[C@@H]1O [Tobramycin]
- MIC [1]: 2
- MIC [2]: 2
- MIC [3]: 16
- MIC [4]: 1 µg/mL (≈ 2.14 µM)
- MIC [5]: 1 µg/mL (≈ 2.14 µM)
- MIC [6]: 2 µg/mL (≈ 4.28 µM)
- MIC [7]: 16 µg/mL (≈ 34.2 µM)
- MIC [8]: 2
- MIC [9]: 32
- MIC [10]: 8
- MIC [11]: 32
- MIC [12]: > 64
- MIC [13]: > 64
- MIC [14]: 0.5
- MIC [15]: 32
- MIC [16]: 32
